# In patent US7626031B2, “Substituted 3-(diarylmethylene)indolin-2-ones and methods of their use” (Symphony Evolution, Inc., priority 2002, dated 2009):
# pIC50: −log10 of the molar value.
# Key:
# c-Kit kinase = c-Kit kinase (Homo sapiens, UniProt P10721); assay: c-Kit AlphaScreen kinase assay; format: biochemical
# Experimental: (§1) Kinase activity and compound inhibition are investigated using one or more assay formats. The ATP concentrations for each assay are selected to be close to the Michaelis-Menten constant (KM) for each individual kinase. Dose-response experiments are performed at 10 different inhibitor concentrations in a 384-well plate format. […] Exemplary kinase assays are described below. KDR Assay
# c-Kit biochemical activity was assessed using AlphaScreen™ (Perkin Elmer) technology, described above. Test compounds, ATP, biotinylated poly(Glu, Tyr) and c-Kit kinase were combined in a volume of 20 μL in a 384-well white, medium binding microtiter plate (Greiner). Reaction mixtures were incubated for 1 hr at ambient temperature. Reactions were quenched by addition of 10 uL of […] AlphaScreen bead suspension containing 75 mM Hepes, pH 7.4, 300 mM NaCl, 120 mM EDTA, 0.3% BSA and 0.03% Tween-20. After 16 hr incubation at ambient temperature plates were read using an AlphaQuest reader (Perkin Elmer).
# IRK = IRK (Homo sapiens, UniProt P06213); assay: Kinase assay, IRK; format: biochemical
# Experimental: as §1
# PDGFR alpha = PDGFR alpha (Homo sapiens, UniProt P16234); assay: Kinase assay, PDGFR alpha (33P-ATP incorporation or luciferase-coupled ATP consumption); format: biochemical; details: read-out: PDGF-R-A IC50
# Summary of the method: (§2)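 Two formats used: luciferase/luciferin chemiluminescence of ATP consumed with pEY, or radiometric 33P transfer to plate-bound MBP or pEY read by scintillation.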
# FGFR1 = FGFR1 (Homo sapiens, UniProt P11362); assay: Kinase assay, FGFR1 (33P-ATP incorporation or luciferase-coupled ATP consumption); format: biochemical
# Summary of the method: as §2
# EGFR = EGFR (Homo sapiens, UniProt P00533); assay: Kinase assay, EGFR (33P-ATP incorporation or luciferase-coupled ATP consumption); format: biochemical
# Summary of the method: as §2
# EphA2 = EphA2 (Homo sapiens, UniProt P29317); assay: Kinase assay, EphA2 (33P-ATP incorporation or luciferase-coupled ATP consumption); format: biochemical
# Summary of the method: as §2
# [1] = biological target: T1, KDR (baculovirus expressed human KDR kinase domain D807-V1356) (Homo sapiens, UniProt P35968); assay: biochemical
# T1 construct: human KDR kinase domain D807-V1356; host or cells: baculovirus expression system
# Summary of the method: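 Baculovirus human KDR kinase domain (D807–V1356) with ATP near its KM; 10-point dose-response, 4 h at ambient temperature. Activity taken as percent ATP remaining, detected by luciferase–luciferin chemiluminescence.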
# Fyn = Fyn (Homo sapiens, UniProt P06241); assay: Kinase assay, Fyn; format: biochemical
# Experimental: as §1
# Flt-1 = Flt-1 (Homo sapiens, UniProt P17948); assay: Kinase assay, Flt-1 (33P-ATP incorporation or luciferase-coupled ATP consumption); format: biochemical; details: read-out: Flt1 IC50
# Summary of the method: as §2
# Chain of Fyn (P06241 whole entry, species assumed): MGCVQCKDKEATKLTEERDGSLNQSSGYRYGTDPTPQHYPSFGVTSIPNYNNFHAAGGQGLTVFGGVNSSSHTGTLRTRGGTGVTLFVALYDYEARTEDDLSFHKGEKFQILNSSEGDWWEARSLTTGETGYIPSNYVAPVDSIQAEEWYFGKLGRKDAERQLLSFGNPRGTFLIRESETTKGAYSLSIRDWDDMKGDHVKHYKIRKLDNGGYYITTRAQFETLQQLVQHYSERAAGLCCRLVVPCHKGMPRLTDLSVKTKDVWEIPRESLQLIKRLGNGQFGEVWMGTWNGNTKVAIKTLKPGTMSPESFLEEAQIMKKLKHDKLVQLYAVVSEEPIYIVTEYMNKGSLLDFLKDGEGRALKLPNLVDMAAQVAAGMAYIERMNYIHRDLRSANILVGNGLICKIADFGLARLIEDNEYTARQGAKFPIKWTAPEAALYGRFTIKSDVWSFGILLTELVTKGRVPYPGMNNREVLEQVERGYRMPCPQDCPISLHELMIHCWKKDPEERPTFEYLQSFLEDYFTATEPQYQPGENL
# Chain of IRK (P06213 28-1382): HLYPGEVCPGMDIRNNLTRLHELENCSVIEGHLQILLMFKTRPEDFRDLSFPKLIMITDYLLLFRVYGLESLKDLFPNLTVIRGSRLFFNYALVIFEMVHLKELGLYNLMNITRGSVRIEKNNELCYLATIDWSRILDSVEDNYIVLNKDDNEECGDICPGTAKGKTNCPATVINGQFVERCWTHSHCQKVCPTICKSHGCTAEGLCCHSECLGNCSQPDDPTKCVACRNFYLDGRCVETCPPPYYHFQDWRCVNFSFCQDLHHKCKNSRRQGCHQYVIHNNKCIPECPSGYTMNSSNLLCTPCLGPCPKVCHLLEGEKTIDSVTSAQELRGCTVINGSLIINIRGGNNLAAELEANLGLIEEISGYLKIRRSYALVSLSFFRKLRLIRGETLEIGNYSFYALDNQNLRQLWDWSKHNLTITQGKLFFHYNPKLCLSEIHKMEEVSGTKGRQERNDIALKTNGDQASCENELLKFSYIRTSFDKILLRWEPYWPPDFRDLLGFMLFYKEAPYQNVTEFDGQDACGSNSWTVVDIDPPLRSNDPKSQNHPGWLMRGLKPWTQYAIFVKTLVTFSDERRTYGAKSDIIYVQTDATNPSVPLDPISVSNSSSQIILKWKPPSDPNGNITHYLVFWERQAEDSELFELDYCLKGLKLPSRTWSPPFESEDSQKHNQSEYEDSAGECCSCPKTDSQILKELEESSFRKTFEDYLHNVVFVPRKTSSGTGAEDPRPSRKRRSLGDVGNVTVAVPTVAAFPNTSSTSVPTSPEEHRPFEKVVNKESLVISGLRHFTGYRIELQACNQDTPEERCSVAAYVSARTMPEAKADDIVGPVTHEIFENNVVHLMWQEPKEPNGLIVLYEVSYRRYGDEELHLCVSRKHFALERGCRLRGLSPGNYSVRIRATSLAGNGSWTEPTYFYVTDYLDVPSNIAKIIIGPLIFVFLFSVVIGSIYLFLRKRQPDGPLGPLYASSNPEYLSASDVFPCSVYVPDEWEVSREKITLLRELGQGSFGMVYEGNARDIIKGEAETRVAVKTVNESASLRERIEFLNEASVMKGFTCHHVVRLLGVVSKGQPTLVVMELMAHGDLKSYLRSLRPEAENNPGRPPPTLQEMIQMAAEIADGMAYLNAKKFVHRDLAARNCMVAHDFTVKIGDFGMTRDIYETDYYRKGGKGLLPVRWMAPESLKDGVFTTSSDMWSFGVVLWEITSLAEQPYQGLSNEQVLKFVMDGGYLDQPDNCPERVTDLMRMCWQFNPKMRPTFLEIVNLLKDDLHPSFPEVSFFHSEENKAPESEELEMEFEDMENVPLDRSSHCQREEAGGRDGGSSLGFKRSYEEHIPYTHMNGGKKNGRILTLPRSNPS
# Chain of c-Kit kinase (P10721 26-976): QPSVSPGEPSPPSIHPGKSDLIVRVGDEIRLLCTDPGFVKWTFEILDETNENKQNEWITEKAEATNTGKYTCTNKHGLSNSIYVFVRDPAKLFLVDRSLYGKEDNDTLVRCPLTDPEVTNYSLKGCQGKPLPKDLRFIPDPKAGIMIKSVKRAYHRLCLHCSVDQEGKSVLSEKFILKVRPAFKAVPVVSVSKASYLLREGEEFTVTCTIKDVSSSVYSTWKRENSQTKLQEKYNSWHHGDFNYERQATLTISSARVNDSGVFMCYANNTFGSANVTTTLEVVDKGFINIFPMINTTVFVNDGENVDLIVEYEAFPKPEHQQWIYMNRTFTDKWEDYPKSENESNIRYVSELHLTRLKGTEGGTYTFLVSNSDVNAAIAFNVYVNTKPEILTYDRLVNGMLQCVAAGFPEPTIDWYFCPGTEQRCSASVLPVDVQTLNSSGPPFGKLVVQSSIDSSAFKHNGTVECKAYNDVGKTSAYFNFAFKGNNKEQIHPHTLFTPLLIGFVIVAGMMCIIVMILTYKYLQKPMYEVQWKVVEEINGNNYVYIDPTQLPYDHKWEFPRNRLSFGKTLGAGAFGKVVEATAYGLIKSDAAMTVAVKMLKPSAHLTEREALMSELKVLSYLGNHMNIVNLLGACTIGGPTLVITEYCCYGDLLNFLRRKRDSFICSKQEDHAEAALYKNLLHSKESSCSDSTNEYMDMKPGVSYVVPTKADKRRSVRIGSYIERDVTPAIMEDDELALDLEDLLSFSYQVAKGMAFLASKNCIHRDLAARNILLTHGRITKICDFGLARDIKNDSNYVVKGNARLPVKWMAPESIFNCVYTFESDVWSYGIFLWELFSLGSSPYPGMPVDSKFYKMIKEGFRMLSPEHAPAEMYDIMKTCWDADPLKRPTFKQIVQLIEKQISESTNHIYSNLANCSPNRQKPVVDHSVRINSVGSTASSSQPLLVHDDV
# Chain of FGFR1 (P11362 22-822, species assumed): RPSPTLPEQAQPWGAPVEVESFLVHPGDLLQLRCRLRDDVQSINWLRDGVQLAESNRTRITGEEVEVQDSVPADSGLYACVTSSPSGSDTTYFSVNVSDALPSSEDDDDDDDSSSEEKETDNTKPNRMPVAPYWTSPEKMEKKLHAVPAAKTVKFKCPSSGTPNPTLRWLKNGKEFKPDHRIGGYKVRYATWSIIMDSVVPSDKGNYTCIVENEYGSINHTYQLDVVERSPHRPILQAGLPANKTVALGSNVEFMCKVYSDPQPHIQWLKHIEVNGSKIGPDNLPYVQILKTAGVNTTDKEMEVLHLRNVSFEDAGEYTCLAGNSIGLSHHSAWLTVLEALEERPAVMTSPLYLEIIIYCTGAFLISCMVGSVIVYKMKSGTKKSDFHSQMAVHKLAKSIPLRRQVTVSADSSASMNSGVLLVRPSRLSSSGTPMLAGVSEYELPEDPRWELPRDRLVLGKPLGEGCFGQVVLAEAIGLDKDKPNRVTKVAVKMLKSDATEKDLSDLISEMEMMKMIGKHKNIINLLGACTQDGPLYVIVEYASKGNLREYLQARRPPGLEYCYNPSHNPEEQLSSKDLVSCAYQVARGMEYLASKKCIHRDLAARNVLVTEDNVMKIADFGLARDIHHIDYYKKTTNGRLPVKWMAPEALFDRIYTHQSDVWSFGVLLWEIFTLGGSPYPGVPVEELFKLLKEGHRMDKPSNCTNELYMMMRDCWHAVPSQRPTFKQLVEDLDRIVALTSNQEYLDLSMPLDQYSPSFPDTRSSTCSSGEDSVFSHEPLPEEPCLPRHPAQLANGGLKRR
# Chain of EphA2 (P29317 24-976, species assumed): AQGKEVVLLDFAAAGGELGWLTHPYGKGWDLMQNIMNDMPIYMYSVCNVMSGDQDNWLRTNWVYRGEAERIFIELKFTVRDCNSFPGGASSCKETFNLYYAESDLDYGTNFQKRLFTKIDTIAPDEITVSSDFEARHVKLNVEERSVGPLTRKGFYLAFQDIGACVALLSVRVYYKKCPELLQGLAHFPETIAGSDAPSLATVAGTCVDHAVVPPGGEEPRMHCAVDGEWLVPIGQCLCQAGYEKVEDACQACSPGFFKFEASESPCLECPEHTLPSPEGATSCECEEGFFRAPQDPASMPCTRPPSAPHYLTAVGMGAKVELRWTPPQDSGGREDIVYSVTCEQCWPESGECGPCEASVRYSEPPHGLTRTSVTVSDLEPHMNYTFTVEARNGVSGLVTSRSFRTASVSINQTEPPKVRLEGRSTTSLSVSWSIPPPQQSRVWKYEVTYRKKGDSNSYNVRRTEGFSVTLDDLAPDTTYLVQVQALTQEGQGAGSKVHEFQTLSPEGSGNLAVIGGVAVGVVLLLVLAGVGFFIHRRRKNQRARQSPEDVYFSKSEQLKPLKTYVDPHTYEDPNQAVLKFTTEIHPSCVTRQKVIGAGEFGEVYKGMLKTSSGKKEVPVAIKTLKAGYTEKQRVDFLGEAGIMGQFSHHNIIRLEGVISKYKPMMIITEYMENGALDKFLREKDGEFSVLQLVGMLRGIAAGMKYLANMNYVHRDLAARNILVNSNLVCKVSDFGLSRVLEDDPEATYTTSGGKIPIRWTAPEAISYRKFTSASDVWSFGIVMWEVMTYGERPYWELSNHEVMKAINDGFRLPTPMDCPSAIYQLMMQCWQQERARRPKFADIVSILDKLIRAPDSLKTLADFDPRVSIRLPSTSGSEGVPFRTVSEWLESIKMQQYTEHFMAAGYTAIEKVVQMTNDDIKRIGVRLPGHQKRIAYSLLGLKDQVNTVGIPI
Structure (SMILES),pIC50 (c-Kit kinase),pIC50 (IRK),pIC50 (PDGFR alpha),pIC50 (FGFR1),pIC50 (EGFR),pIC50 (EphA2),pIC50 [1],pIC50 (Fyn),pIC50 (Flt-1)
"CCN1CCC(Nc2ccc3c(c2)/C(=C(\c2cccc(C(F)(F)F)c2)c2nc(C)c[nH]2)C(=O)N3)CC1 [Entry 115, (3Z)-3-[(3-trifluoromethylphenyl)(4-methyl-1H-imidazol-2-yl)methylidene]-5-[(1-ethylpiperidin-4-yl)amino]-1,3-dihydro-2H-indol-2-one]",> 7.30,5.30 to 6.30,> 7.30,6.30 to 7.30,5.30 to 6.30,5.30 to 6.30,> 7.30,6.30 to 7.30,
"CCN1CCC(Nc2ccc3c(c2)/C(=C(\c2ccc(F)cc2)c2nc(C)c[nH]2)C(=O)N3)CC1 [Entry 106, (3Z)-5-[(1-ethylpiperidin-4-yl)amino]-3-[(4-fluorophenyl)(4-methyl-1H-imidazol-2-yl)methylidene]-1,3-dihydro-2H-indol-2-one]",6.30 to 7.30,5.30 to 6.30,> 7.30,6.30 to 7.30,6.30 to 7.30,5.30 to 6.30,> 7.30,> 7.30,
"CCN1CCC(Nc2ccc3c(c2)/C(=C(\c2ccc(C(F)(F)F)cc2)c2ncc[nH]2)C(=O)N3)CC1 [Entry 60, (3Z)-5-[(1-ethylpiperidin-4-yl)amino]-3-{1H-imidazol-2-yl[4-(trifluoromethyl)phenyl]methylidene}-1,3-dihydro-2H-indol-2-one]",6.30 to 7.30,< 5.30,> 7.30,> 7.30,5.30 to 6.30,5.30 to 6.30,> 7.30,> 7.30,
"CCN1CCC(Nc2ccc3c(c2)/C(=C(\c2cc(F)cc(F)c2)c2ncc[nH]2)C(=O)N3)CC1 [Entry 73, (3Z)-3-[(3,5-difluorophenyl)(1H-imidazol-2-yl)methylidene]-5-[(1-ethylpiperidin-4-yl)amino]-1,3-dihydro-2H-indol-2-one]",6.30 to 7.30,< 5.30,> 7.30,> 7.30,6.30 to 7.30,5.30 to 6.30,> 7.30,> 7.30,
CCN1CCC(Nc2ccc3c(c2)/C(=C(\c2ccc(C(F)(F)F)cc2)c2nc(C)c[nH]2)C(=O)N3)CC1 [Entry 101],6.30 to 7.30,5.30 to 6.30,> 7.30,> 7.30,6.30 to 7.30,5.30 to 6.30,> 7.30,> 7.30,
"COCCN1CCC(Nc2ccc3c(c2)/C(=C(\c2ccccc2)c2nc4ccccc4[nH]2)C(=O)N3)CC1 [Entry 24, (3Z)-3-[1H-benzimidazol-2-yl(phenyl)methylidene]-5-({1-[2-(methyloxy)ethyl]piperidin-4-yl}amino)-1,3-dihydro-2H-indol-2-one]",> 7.30,5.30 to 6.30,,,6.30 to 7.30,5.30 to 6.30,,> 7.30,
"CCN1CCC(Nc2ccc3c(c2)/C(=C(\c2ccc(C(F)(F)F)c(F)c2)c2nc(C)c[nH]2)C(=O)N3)CC1 [Entry 103, (3Z)-5-[(1-ethylpiperidin-4-yl)amino]-3-[[3-fluoro-4-(trifluoromethyl)phenyl](4-methyl-1H-imidazol-2-yl)methylidene]-1,3-dihydro-2H-indol-2-one]",6.30 to 7.30,5.30 to 6.30,,> 7.30,> 7.30,5.30 to 6.30,> 7.30,> 7.30,
CCN1CCC(N(C)c2ccc3c(c2)/C(=C(\c2cccc(Cl)c2)c2nc4ccccc4[nH]2)C(=O)N3)CC1 [Entry 43],,5.30 to 6.30,6.30 to 7.30,6.30 to 7.30,5.30 to 6.30,5.30 to 6.30,> 7.30,6.30 to 7.30,5.30 to 6.30
"CCN1CCC(Nc2ccc3c(c2)/C(=C(\c2ccc(C)c(F)c2)c2nc4ccccc4[nH]2)C(=O)N3)CC1 [Entry 50, (3Z)-3-[1H-benzimidazol-2-yl(3-fluoro-4-methylphenyl)methylidene]-5-{(1-ethylpiperidin-4-yl)amino]-1,3-dihydro-2H-indol-2-one]",,5.30 to 6.30,> 7.30,> 7.30,> 7.30,5.30 to 6.30,> 7.30,> 7.30,> 7.30
